What was measured:
Type in all cases: cell-based, human
β-tubulin [1] = assay: Separation of soluble and polymerized tubulins, Western blot of β-tubulin; settings: MDA-MB-231 cells, 30 μM, 24 h and 48 h; for formation of modified β-tubulin (second immunoreactive band of lower Mr): free tubulin fraction
Procedure: FIG. 2. Effects of CEU derivatives on microtubule depolymerization. Exponentially growing MDA-MB-231 cells were incubated in the absence or the presence of 30 μM of CEU derivatives including (A) 4-tBCEU, 4-iPCEU or 4-sBCEU for 24 and 48 h respectively; (B) 2-ECEU, 3-ECEU or 4-ECEU for 24 and 48 h; and (C) 4-tBEU, 4-iPEU, 4-sBEU, 4-tBCPU, CEU or 4-methoxyCEU for 48 h. Free tubulin and microtubule fractions were isolated and analyzed by Western blot. Data are representative of three different experiments.
Separation of soluble and polymerized tubulins from MDA-MB231 cells was carried out as described by Minotti et al. (14) with minor modifications. Briefly, after drug exposure, about 5×10^6 cells in 100-mm petri dishes were washed with PBS at 37° C. and harvested in 3 ml of PBS containing 0.4 μg/ml of taxol using a rubber policeman.
Cells were centrifuged and lysed using 250 μl of microtubule-stabilizing buffer (20 mM Tris-HCl, pH 6.8, 140 mM NaCl, 1 mM MgCl2, 2 mM EDTA, 0.5% Nonidet P-40 and 0.4 μg/ml taxol), and then transferred to 1.5 ml microcentrifuge tubes. Samples were centrifuged at 12,000×g for 10 min at 4° C. and the supernatants containing soluble tubulin were placed in separate microcentrifuge tubes containing 250 μl of 2× Laemmli sample buffer (15). Pellets containing the polymerized tubulin were resuspended in 250 μl of water, followed by two freeze/thawing cycles, and the addition of 250 μl of 2× Laemmli sample buffer. Samples were analyzed by SDS-PAGE and immunoassay was performed as described below.
(§1) Samples (1×10^5 cells) were analyzed by 10% SDS-PAGE using the Laemmli system (15). Membranes were then incubated with PBSMT (PBS, pH 7.4, 5% fat-free dry milk and 0.1% Tween-20) for 1 h at room temperature, and then with 1:500 monoclonal anti-β-tubulin (clone TUB 2.1, Sigma) or 1:400 anti (clone no. SDL.3D10, Sigma) for 1 h. […] Membranes were washed with PBSMT and incubated with 1:2500 peroxidase-conjugated anti-mouse immunoglobulin (Amersham Canada, Oakville, Canada) in PBSMT for 30 min. Detection of the immunoblot was carried out with the ECL Western blotting detection reagent kit (Amersham Canada, Oakville, Canada).

MDA-MB-231 cells [2] = assay: cells
Procedure: Human breast carcinoma cell line, MDA-MB-231, was obtained from the American Type Culture Collection (ATCC HTB-26; Bethesda, Md.). MDA-MB-231 cells were grown in RPMI 1640 medium supplemented with 10% bovine calf serum (Hyclone, Road Logan, Utah). Wild-type Chinese Hamster Ovary cells (CHO-10001) (7), colchicine- and vinblastine-resistant (CHO-VV 3-2) (8) and taxol-resistant (CHO-TAX 5-6) cells (9) were generously provided by Dr. Fernando Cabral (University of Texas Medical School, Houston, Tex.). These cells were cultured in RPMI 1640 containing 10% fetal bovine serum. SK—N—SH human neuroblastoma cells, (ATCC HTB-11; Bethesda, Md.) were cultured in MEM medium supplemented with 2 mM L-glutamine, 1.5 g/liter sodium bicarbonate, 0.1 mM non-essential amino acids, 1 mM sodium pyruvate and 10% fetal bovine serum. Cells were cultured in a humidified atmosphere at 37° C. in 5% CO2.
Cytotoxicity was assessed using the MTT assay (3-(4,5-dimethylthiazol-2-yl)-2,5-diphenyltetrazolium bromide) as described by Carmichael et al. (12).

MDA-MB-231 cells [3] = assay: Cell cycle analysis by propidium iodide flow cytometry; settings: CEU derivatives at 30 μM, 24 h; flow cytometry
Procedure: FIG. 1. Effect of CEU derivatives on cell cycle. Exponentially growing MDA-MB-231 cells were incubated in the absence or presence of 30 μM of either 4-tBCEU, 4-iPCEU or 4-sBCEU for 24 and 48 h, respectively, at 37° C. The cell cycle was evaluated using propidium iodide staining and flow cytometric analysis. Data are representative of three independent experiments.
Following incubation of MDA-MB-231 cells with 4-tBCEU, 4-iPCEU or 4-sBCEU, the cells were harvested, resuspended in 1 ml PBS and fixed by the addition of 2.4 ml of ice cold anhydrous ethanol. Then, 5×10^5 cells from each sample were centrifuged for 3 min at 1000×g. Cell pellets were resuspended in PBS containing 50 μg/ml of PI and 40 U/ml of ribonuclease A (Boehringer Mannheim, Laval, Calif.). Mixtures were incubated at room temperature for 30 min and cell cycle distribution was analyzed using an Epics Elite ESP flow cytometer (Coulter Corporation, Miami, Fla., USA).
The effect of CEU, namely 4-tBCEU, 4-PCEU and 4-sBCEU, on the cell cycle was analyzed. To this end, exponentially growing MDA-MB-231 cells were treated with 30 μM 4-tBCEU, 4-iPCEU or 4-sBCEU for 24 or 48 h followed by an evaluation of cell cycle distribution by flow cytometry using propidium iodide, a fluorescent DNA dye. […] Induction of mitosis blockage in prophase by CEU derivatives was confirmed by mitotic index analysis as described by Drouin (22).

β-tubulin [4] = assay: Competition with antimicrotubule agents for the site of β-tubulin alkylation
Procedure: FIG. 6. Identification of the site of alkylation of β-tubulin by CEU: competition with antimicrotubule agents. […] Data are representative of three different experiments.
as §1
The latter agents were used because they have well defined binding sites on β-tubulin (24-28) and because they were expected to inhibit alkylation by CEU if they shared a common binding site. […] These putative alkylation sites are two nucleophilic mercapto groups of cysteine residues at positions 239 and 354, respectively (25). To assess the possible alkylation of these mercapto residues by CEU, MDA-MB-231 cells were treated with 4-tBCEU in the presence of iodoacetamide, a specific thiol alkylating agent (31, 32). […] Similar experiments were carried out using EBI, a bifunctional alkylating agent that specifically induces cross-linking between Cys239 and Cys354 of β-tubulin (32).

CCc1ccc(NC(=O)NCCCl)cc1 [Example 4-ECEU, 4-ethyl(3-(2-chloroethyl)ureido]benzene]
microtubule depolymerization (β-tubulin [1]): delayed in time | formation of modified β-tubulin (second immunoreactive band of lower Mr) (β-tubulin [1]): delayed in time

O=C(NCCCl)Nc1ccccc1 [CEU]
cytotoxicity in words (active / inactive CEU) (MDA-MB-231 cells [2]): inactive | microtubule depolymerization (β-tubulin [1]): inactive

CCNC(=O)Nc1ccc(C(C)C)cc1 [Example 4-iPEU, 4-iso-propyl[3-(ethyl)ureido]benzene]
microtubule depolymerization (β-tubulin [1]): no depolymerization | formation of modified β-tubulin (second immunoreactive band of lower Mr) (β-tubulin [1]): no effect on β-tubulin

COc1cc2c(c(OC)c1OC)-c1ccc(OC)c(=O)cc1[C@@H](NC(C)=O)CC2 [Colchicine, reference compound]
accumulation of cells in G2+M (MDA-MB-231 cells [3]): G2+M block

COc1ccc(NC(=O)NCCCl)cc1 [Example 4-methoxyCEU, 4-methoxy[3-(2-chloroethyl)ureido]benzene]
microtubule depolymerization (β-tubulin [1]): inactive

CCc1ccccc1NC(=O)NCCCl [Example 2-ECEU, 2-ethyl[3-(2-chloroethyl)ureido]benzene]
cytotoxicity in words (active / inactive CEU) (MDA-MB-231 cells [2]): inactive | microtubule depolymerization (β-tubulin [1]): no depolymerization | formation of modified β-tubulin (second immunoreactive band of lower Mr) (β-tubulin [1]): no effect on β-tubulin

4-sec-butyl[3-(ethyl)ureido]benzene [Example 4-sBEU]
cytotoxicity in words (active / inactive CEU) (MDA-MB-231 cells [2]): inactive | microtubule depolymerization (β-tubulin [1]): no depolymerization | formation of modified β-tubulin (second immunoreactive band of lower Mr) (β-tubulin [1]): no effect on β-tubulin

CCNC(=O)Nc1ccc(C(C)(C)C)cc1 [Example 4-tBEU, 4-tert-butyl[3-(ethyl)ureido]benzene]
microtubule depolymerization (β-tubulin [1]): no depolymerization | formation of modified β-tubulin (second immunoreactive band of lower Mr) (β-tubulin [1]): no effect on β-tubulin

NC(=O)CI [iodoacetamide]
effect of pre-treatment on β-tubulin alteration induced by EBI (β-tubulin [4]; 24 h with 5 μM colchicine, 5 μM vinblastine or 100 μM iodoacetamide, then 100 μM EBI for 2 h): abrogated | effect of competitor on formation of modified β-tubulin induced by CEU (β-tubulin [4]; MDA-MB-231 cells, 48 h, 30 μM CEU with 5 μM taxol, colchicine or vinblastine or 100 μM iodoacetamide): completely prevented β-tubulin alkylation by 4-tBCEU

4-tert-butyl[3-(2-chloropropyl)ureido]benzene [Example 4-tBCPU]
cytotoxicity in words (active / inactive CEU) (MDA-MB-231 cells [2]): inactive | microtubule depolymerization (β-tubulin [1]): inactive

CCc1cccc(NC(=O)NCCCl)c1 [Example 3-ECEU, 3ethyl[3-(2-chloroethyl)ureido]benzene]
microtubule depolymerization (β-tubulin [1]): delayed in time | formation of modified β-tubulin (second immunoreactive band of lower Mr) (β-tubulin [1]): delayed in time

Source: patent publication US20050250853A1, “Beta-tubulin inhibitors” (priority 1999, published 2005)
